# According to PubChem BioAssay (NCI):
#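 Tested at 5 concentrations; 48 h exposure; 96-well plates; endpoints linearly interpolated, else capped at highest concentration. TGI: total growth inhibition.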
# What was measured:
# Assay in all cases: NCI-60 cell line screen, 48 h
# HT29 colon = tested on: HT29 colon
# EKVX NSCLC = tested on: EKVX NSCLC
# A549 NSCLC = tested on: A549 NSCLC
# UO-31 renal = tested on: UO-31 renal
# UACC-62 melanoma = tested on: UACC-62 melanoma
# UACC-257 melanoma = tested on: UACC-257 melanoma
# SF-539 CNS = tested on: SF-539 CNS
# HOP-92 NSCLC = tested on: HOP-92 NSCLC
# M14 melanoma = tested on: M14 melanoma
# SF-295 CNS = tested on: SF-295 CNS
structure (smiles),measurement,setting,value
COc1cc(-c2coc3c(OC)c(OC4OC(COC5OC(C)C(O)C(O)C5O)C(O)C(O)C4O)c(OC)c(O)c3c2=O)cc(C)c1O (stereo not given),TGI,HT29 colon,43.5 µM
same,TGI,EKVX NSCLC,38 µM
same,TGI,A549 NSCLC,> 100 µM
same,TGI,UO-31 renal,50.5 µM
same,TGI,UACC-62 melanoma,34.7 µM
same,TGI,UACC-257 melanoma,68.2 µM
same,TGI,SF-539 CNS,39 µM
same,TGI,HOP-92 NSCLC,65 µM
same,TGI,M14 melanoma,33.1 µM
same,TGI,SF-295 CNS,38 µM
